# Test results: paper PMC10573892, “β-Lactam TRPM8 Antagonists Derived from Phe-Phenylalaninol Conjugates: Structure–Activity Relationships and Antiallodynic Activity” (International Journal of Molecular Sciences, 2023)
# What was measured:
# [1] = target: T1, rat TRPM8 channel (rTRPM8) (Rattus norvegicus, UniProt Q8R455); test: Ca2+ microfluorimetry, menthol-induced Ca2+ entry in HEK293 cells overexpressing rTRPM8; format: cell-based; conditions: for IC50: rTRPM8, HEK293, activation by 100 µM menthol
# T1 construct: expressed in transfected cells
# Description: The diastereomeric 1,4,4-trisubstitutes β-lactams were evaluated as modulators of the TRPM8 channel by calcium microfluorimetry assays. These assays use a Human Embryonic Kidney 293 (HEK293) cell line that stably overexpressed rat TRPM8 channel (rTRPM8). […] Three separated experiments in triplicate were used.
# The initial biological evaluation of this series of 1,3,4,4-tetrasubstituted β-lactams was performed by calcium microfluorimetry assays using the indicated HEK293 cell line overexpressing rTRPM8 channels.
# (§1) Calcium fluorometry, Patch-Clamp assays and in vivo experiments were performed using the methodology previously described for TRPM8 [35] or TRPM3 [61]. In the Patch -Clamp experiments, the intracellular pipette solution contained (in mM) 140 KCl, 5 EGTA, and 10 mM HEPES, adjusted to pH 7.2 with KOH, and the extracellular solution contained (in mM) 140 NaCl, 2 CaCl2, 1 MgCl2, 10 D-glucose and 10 HEPES, adjusted to pH 7.4 with NaOH. Selectivity against TRPV1, TRPV3, TRPA1 and ASIC3 was subcontracted to Eurofins-CEREP or Eurofins-PANLABS (see ref. [35] for more details).
# [2] = system: oxaliplatin-induced cold hypersensitivity; test: Oxaliplatin-induced cold allodynia in mice (acetone drop test); format: in vivo
# Source text: It is established that treatments with the chemotherapeutic drug oxaliplatin (OXA) induce painful peripheral neuropathy, known as CIPN, which becomes more pronounced in cold conditions. The TRPM8 channel has been implicated in mouse models of CIPN pain induced by OXA [19, 51]. In fact, the OXA-induced peripheral neuropathy mouse model is being used for the pharmacological characterization of TRPM8 antagonists. For this peripheral neuropathy assay, mice were subcutaneously (s.c.) injected with OXA at a dose of 6 mg/kg dose on days 1, 3 and 5 to male mice to induce increased sensitivity to cold, which can be monitored through the acetone drop test.
# Consequently, compounds 34 and 35 have been tested for their ability to alleviate OXA-induced cold hypersensitivity after intraplantar administration (i.pl., 3, 1 and 0.1 μg). […] This effect was observed 15 min post-administration and sustained up to 60 min.
# as §1
# Figure 4 Effects of compounds 34 (A) and 35 (B) on the oxaliplatin (OXP)-induced cold hypersensitivity (drop acetone test). Peripheral neuropathy was induced in male mice by injecting OXA (6 mg/kg, s.c.) on days 1, 3 and 5. Control animals were treated with vehicle. Compounds 34 (A) and 35 (B) (3 µg/i.pl., 1 µg/i.pl. and 0.1 µg/i.pl.) were administered to the OXP-treated animals, and the time-course of cold hypersensitivity was measured. Data are given ± SEM (n = 5). Statistical analysis, comparing with oxaliplatin-treated mice, was performed by two-way ANOVA followed by post hoc Bonferroni test by multiple comparisons: * […], ** p < 0.01, **** p < 0.0001.
# [3] = system: dorsal root ganglia (DRG) sensory neurons; test: Resting membrane potential of DRG sensory neurons (current clamp Patch-Clamp); format: cell-based; conditions: 10 µM
# Description: We also investigated the effect of β-lactams derivatives on the resting membrane potential (RMP) of dorsal root ganglia (DRG) sensory neurons.
# (A) Representative recordings of resting membrane potential measured under current clamp configuration. The traces show the action potentials (APs) firings from DRG neurons elicited by 100 μM menthol (left trace) or in the presence of vehicle (0.5% DMSO) or the β-lactams derivatives ([…]). (B) Changes in the Vm in the absence and in the presence of 10 μM of the β-lactams derivatives. Data were analyzed by one-way ANOVA followed by Bonferroni post hoc test for multiple comparisons (ns = no significance, **** p < = 0.0001) and given as mean ± SEM; n ≥ 40 cells from 4 cultures.
# hTRPM3 = hTRPM3 (Homo sapiens, UniProt Q9HCF6); test: TRPM3 channel Ca2+ microfluorimetry (pregnenolone sulfate 50 µM); format: cell-based; conditions: 10 µM; read-out: degree of inhibition in the Ca^2+ influx induced by pregnenolone sulfate (TRPM3)
# Description: First, some TRP channels that play a role in temperature integration and nociception were selected, including hTRPV1, hTRPV3, hTRPA1 and TRPM3. Additionally, the evaluation encompassed the hASIC3 channel with widespread distribution within the peripheral nervous system and contributions to the excitability of primary sensory neurons. In each instance, the compound was subjected to evaluation at a consistent concentration of 10 µM.
# as §1
# hTRPM8 = target: T2, hTRPM8 (Homo sapiens, UniProt Q7Z2W7); test: Ca2+ microfluorimetry in HEK293 cells expressing human TRPM8; format: cell-based; conditions: activation by 100 µM menthol; read-out: Ca^2+ Microfluorimetry Assays hTRPM8 IC50
# T2 construct: expressed in transfected cells; host or cells: HEK293
# Description: To further characterize this family of compounds, calcium microfluorimetry assays were conducted using the HEK293 cell line, which expresses the human isoform of the TRPM8 channel. Amide derivatives 34 and 35 were selected, and their outcomes were compared with those of the model compound 1 (Table 4). […] This behavior is not particular of these β-lactams, but it is similar to those observed for other TRPM8 antagonists.
# as §1
# rTRPM8 = target: T3, rTRPM8 (Rattus norvegicus, UniProt Q8R455); test: Patch-Clamp electrophysiology on single HEK293 cells expressing rat TRPM8; format: cell-based; conditions: activation by 100 µM menthol; holding voltage −60 mV
# T3 construct: expressed in transfected cells
# Source text: A recent research study using Patch-Clamp, among other techniques, established that menthol occupies a cavity within the TRPM8 S1–S4 transmembrane helix, with the OH group forming an H-bond with the δ-NH of R842 residue, and Van der Waals interactions among the methyl groups of the ^iPr moiety and residues I846 and L843 [41].
# This is evident by a negligible current at negative potentials and a linear intensification of the ohmic current at positive voltages. When applying compound 34 at a concentration of […], a noticeable reduction in menthol-induced activity at depolarizing voltages was observed (indicated by the red line) compared to menthol alone. Dose–response relationships for both tested compounds were established through triplicate experiments at various concentrations, applying a holding voltage of −60 mV (as shown in Figure 2B).
# as §1
# Figure 2 Compound 34 blocks TRPM8-mediated responses evoked by menthol in rTRPM8-expressing HEK293 cells. (A) IV curves obtained after exposure to vehicle solution (green trace), 100 µM menthol (blue trace) and 100 µM menthol + 10 µM 34 (red trace). Peak current data were expressed as pA/pF (to allow comparison among different size cells). Each point is the mean ± SEM of n = 15. (B) Concentration/response curves for rTRPM8 current blockade by 34 at a holding voltage of −60 mV. […]
# T1 sequence (Q8R455 whole entry): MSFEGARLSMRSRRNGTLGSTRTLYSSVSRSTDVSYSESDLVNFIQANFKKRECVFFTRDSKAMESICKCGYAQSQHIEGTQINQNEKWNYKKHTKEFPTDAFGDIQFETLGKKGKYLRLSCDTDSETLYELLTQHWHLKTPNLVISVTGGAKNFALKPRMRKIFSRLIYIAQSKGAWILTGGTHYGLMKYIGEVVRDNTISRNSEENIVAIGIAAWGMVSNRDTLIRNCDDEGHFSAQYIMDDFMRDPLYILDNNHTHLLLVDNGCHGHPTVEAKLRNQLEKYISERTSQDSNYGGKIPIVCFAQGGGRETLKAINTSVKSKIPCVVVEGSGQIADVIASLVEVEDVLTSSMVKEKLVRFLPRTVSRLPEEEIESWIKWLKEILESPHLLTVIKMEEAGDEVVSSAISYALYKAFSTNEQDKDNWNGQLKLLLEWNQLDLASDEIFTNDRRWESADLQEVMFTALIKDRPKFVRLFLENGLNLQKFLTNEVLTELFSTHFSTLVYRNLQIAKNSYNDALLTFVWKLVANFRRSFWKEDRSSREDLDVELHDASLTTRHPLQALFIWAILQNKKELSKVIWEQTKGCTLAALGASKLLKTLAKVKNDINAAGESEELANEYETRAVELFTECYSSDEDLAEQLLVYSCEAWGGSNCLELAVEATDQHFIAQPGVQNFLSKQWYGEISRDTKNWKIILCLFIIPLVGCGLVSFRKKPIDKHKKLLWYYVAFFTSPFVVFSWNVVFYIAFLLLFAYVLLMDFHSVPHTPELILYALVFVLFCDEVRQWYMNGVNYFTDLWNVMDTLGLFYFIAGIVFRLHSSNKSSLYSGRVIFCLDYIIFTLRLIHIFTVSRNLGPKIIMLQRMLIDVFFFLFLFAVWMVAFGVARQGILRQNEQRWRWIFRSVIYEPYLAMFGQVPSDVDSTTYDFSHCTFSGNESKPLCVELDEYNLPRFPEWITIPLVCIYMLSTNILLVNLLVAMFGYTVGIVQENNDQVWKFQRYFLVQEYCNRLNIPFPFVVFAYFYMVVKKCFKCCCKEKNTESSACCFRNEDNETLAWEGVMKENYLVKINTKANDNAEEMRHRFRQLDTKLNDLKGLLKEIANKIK
# hTRPM3, sequence (Q9HCF6 whole entry): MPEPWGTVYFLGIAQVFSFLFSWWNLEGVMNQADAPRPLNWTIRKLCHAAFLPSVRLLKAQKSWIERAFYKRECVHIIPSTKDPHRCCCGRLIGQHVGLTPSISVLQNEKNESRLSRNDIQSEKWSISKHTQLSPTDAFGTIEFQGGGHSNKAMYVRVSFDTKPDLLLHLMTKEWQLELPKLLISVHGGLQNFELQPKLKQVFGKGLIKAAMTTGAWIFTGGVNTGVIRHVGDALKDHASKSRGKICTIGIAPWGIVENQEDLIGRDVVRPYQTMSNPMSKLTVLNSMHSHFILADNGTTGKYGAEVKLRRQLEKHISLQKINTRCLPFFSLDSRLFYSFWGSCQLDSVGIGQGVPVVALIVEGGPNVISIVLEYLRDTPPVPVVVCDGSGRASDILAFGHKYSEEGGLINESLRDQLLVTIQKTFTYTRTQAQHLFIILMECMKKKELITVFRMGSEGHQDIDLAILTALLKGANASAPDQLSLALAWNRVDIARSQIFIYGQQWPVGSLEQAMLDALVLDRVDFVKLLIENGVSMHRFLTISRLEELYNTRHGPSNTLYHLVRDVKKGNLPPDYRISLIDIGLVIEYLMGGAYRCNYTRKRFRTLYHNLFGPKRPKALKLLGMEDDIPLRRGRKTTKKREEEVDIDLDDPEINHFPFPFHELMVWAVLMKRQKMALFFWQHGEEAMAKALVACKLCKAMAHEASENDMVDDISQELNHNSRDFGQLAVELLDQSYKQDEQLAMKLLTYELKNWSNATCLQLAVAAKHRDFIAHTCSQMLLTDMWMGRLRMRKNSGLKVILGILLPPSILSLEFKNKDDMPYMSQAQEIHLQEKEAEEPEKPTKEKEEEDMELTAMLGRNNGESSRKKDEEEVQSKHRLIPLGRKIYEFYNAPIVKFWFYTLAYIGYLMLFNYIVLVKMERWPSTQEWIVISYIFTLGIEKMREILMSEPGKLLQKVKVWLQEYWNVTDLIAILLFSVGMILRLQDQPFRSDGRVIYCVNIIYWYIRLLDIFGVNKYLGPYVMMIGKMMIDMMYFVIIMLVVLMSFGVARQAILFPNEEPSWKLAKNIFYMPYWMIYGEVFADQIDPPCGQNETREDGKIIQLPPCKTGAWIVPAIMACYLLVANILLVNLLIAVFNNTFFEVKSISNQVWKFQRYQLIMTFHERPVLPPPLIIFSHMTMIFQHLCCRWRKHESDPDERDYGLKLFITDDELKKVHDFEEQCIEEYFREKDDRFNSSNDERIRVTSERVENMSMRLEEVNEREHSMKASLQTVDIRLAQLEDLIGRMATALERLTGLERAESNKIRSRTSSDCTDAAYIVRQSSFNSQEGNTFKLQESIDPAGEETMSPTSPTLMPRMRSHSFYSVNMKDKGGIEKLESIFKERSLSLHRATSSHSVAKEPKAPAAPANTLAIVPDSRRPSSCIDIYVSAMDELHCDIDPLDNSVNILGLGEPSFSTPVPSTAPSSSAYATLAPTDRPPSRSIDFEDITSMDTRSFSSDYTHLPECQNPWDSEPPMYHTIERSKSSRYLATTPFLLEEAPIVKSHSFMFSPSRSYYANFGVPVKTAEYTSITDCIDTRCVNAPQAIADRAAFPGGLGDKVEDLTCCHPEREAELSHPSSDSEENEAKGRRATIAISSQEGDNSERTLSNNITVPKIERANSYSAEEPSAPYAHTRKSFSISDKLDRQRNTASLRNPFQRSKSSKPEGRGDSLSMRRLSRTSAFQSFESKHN
# T3 sequence (Q8R455 whole entry): as the sequence (Q8R455 whole entry) above
# T2 sequence (Q7Z2W7 whole entry): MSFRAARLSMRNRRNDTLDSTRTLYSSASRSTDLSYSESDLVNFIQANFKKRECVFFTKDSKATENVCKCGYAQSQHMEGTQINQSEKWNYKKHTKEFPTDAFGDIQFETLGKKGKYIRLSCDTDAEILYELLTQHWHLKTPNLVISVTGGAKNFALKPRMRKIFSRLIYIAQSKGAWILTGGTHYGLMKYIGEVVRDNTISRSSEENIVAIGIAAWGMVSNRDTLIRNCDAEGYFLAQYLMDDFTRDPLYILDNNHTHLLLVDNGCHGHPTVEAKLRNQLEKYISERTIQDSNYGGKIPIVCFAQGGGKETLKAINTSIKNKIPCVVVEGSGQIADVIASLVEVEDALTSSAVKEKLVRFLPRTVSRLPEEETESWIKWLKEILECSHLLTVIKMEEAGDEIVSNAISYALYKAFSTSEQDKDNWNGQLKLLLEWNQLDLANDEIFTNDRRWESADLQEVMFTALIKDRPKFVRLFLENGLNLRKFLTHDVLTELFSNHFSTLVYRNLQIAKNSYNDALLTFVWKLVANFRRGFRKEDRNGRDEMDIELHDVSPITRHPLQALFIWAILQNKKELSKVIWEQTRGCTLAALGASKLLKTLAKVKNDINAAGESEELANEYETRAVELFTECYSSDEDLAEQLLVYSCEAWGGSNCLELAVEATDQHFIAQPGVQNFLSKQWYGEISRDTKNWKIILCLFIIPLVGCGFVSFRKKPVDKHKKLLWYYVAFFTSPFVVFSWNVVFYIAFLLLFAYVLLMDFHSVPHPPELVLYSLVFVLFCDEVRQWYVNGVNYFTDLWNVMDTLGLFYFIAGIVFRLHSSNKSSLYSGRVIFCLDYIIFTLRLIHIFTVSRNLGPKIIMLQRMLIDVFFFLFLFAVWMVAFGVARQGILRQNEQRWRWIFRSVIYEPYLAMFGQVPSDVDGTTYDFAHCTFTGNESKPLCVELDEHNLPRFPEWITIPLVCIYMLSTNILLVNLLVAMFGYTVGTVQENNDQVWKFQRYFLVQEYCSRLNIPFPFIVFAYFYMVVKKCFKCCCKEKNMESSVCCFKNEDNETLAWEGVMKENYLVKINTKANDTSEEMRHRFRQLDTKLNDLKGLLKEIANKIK
Structure (SMILES),IC50 ([1]; Table 1) [µM],IC50 ([1]; Table 3) [µM],other results
"C[C@@H]1C(=O)N(C[C@H](Cc2ccccc2)NCc2ccccc2)[C@]1(Cc1ccccc1)C(=O)OC(C)(C)C [Compound 37, 4S-Benzyl-4-(terc-butoxy)carbonyl-3S-methyl-1-[(2’S-N-benzylamino-3’-phenyl)prop-1′-yl]-2-oxoazetidine]",,3.06 ± 1.25,
"CC(C)CNC(=O)[C@]1(Cc2ccccc2)[C@H](C)C(=O)N1C[C@H](Cc1ccccc1)NCc1cccc(F)c1 [Compound 43, 4S-Benzyl-4-[N-(iso-butyl)carbamoyl]-3S-methyl-1-[(2′S-(3′′-fluorobenzyl)amino-3′-phenyl)prop-1′-yl]-2-oxoazetidine]",,4.03 ± 1.35,
"C[C@@H]1C(=O)N(C[C@H](Cc2ccccc2)NCc2cccc(-c3ccccc3)c2)[C@]1(Cc1ccccc1)C(=O)OC(C)(C)C [Compound 40, 4S-Benzyl-4-(terc-butoxy)carbonyl-3S-methyl-1-[(2’S-N-(3′′-biphenyl)methylamino-3’-phenyl)prop-1′-yl]-2-oxoazetidine]",,6.36 ± 1.41,
"COC(=O)C1(Cc2ccccc2)CC(=O)N1C[C@H](Cc1ccccc1)N(Cc1ccccc1)Cc1ccccc1 (stereo partly shown) [2a,b]",0.15,,
"CC(C)CNC(=O)[C@]1(Cc2ccccc2)[C@H](C)C(=O)N1C[C@H](Cc1ccccc1)NCc1ccc2ccccc2c1 [Compound 45, 4S-Benzyl-4-[N-(iso-butyl)-carbamoyl]-3S-methyl-1-[(2′S-(2′′-naphtylmethyl)amino-3′-phenyl)prop-1′-yl]-2-oxoazetidine]",,3.56 ± 1.4,
"O=C1C[C@@]2(Cc3ccccc3)C(=O)N[C@@H](Cc3ccccc3)CN12 [Compound 11a, (3S,6S)-3,6-dibenzyl-1,4-diazabicyclo[4.2.0]octane-5,8-dione]",,,"inhibition at 50 µM ([1]; HEK293, at 50 μM): < 50%"
"C[C@@H]1C(=O)N(C[C@H](Cc2ccccc2)N(Cc2ccccc2)Cc2ccccc2)[C@]1(Cc1ccccc1)C(=O)NCc1ccccc1 [Compound 35, 4S-Benzyl-4-[N-(benzyl)-carbamoyl]-3S-methyl-1-[(2′S-dibenzylamino-3′-phenyl)prop-1′-yl]-2-oxoazetidine]",,0.49 ± 1.27,"time the antiallodynic effect is sustained ([2]; i.pl., observed from 15 min post-administration): up to 60 min; effect on cold-induced paw licking ([2]; male mice, OXA 6 mg/kg s.c. days 1, 3, 5, i.pl. 3, 1 and 0.1 μg): dose-dependent and significant reduction; effect on resting membrane potential (RMP) [3]: did not alter the RMP; inhibition at 10 µM (hTRPM3): 4.1 ± 10.8%; IC50 (hTRPM8): 3.33 ± 1.28 µM; IC50 (rTRPM8): 0.48 ± 1.33 µM"
"CC(C)CNC(=O)[C@]1(Cc2ccccc2)[C@H](C)C(=O)N1C[C@H](Cc1ccccc1)NCc1cccc(-c2ccccc2)c1 [Compound 42, 4S-Benzyl-4-[N-(iso-butyl)-carbamoyl]-3S-methyl-1-[(2′S-(3′′-phenylbencil)amino-3′-phenyl)prop-1′-yl]-2-oxoazetidine]",,2.19 ± 1.36,
"CC(C)CNC(=O)C1(Cc2ccccc2)CC(=O)N1C[C@H](Cc1ccccc1)N(Cc1ccccc1)Cc1ccccc1 (stereo partly shown) [4a,b]",0.71 ± 1.2,,
"CC(C)CNC(=O)[C@]1(Cc2ccccc2)[C@H](C)C(=O)N1C[C@H](Cc1ccccc1)NCc1cccc(Br)c1 [Compound 44, 4S-Benzyl-4-[N-(iso-butyl)carbamoyl]-3S-methyl-1-[(2′S-(3′′-bromobenzyl)amino-3′-phenyl)prop-1′-yl]-2-oxoazetidine]",,3.27 ± 1.31,
"C[C@@H]1C(=O)N(C[C@H](Cc2ccccc2)NCc2ccc(-c3ccccc3)cc2)[C@]1(Cc1ccccc1)C(=O)OC(C)(C)C [Compound 41, 4S-Benzyl-4-terc-butoxycarbonyl-3S-methyl-1-[(2’S-N-(4′′-biphenyl)methylamino-3’-phenyl)prop-1′-yl]-2-oxoazetidine]",,9.26 ± 1.41,
"O=C1CC(Cc2ccccc2)(C(=O)NCc2ccc(Cl)c(Cl)c2)N1C[C@H](Cc1ccccc1)N(Cc1ccccc1)Cc1ccccc1 (stereo partly shown) [6a,b]",,,"antagonist activity ([1]; relative to benzylamide 5a,b): notable reduction in antagonist activity"

# The next lines start with results.
IC50 ([1]; Table 1) [µM],IC50 ([1]; Table 3) [µM],Structure (SMILES),other results
0.71 ± 1.27,,"O=C1CC(Cc2ccccc2)(C(=O)NCc2ccccc2)N1C[C@H](Cc1ccccc1)N(Cc1ccccc1)Cc1ccccc1 (stereo partly shown) [5a,b]",
1.99 ± 1.26,,"O=C1CC(Cc2ccccc2)(C(=O)NCc2ccccn2)N1C[C@H](Cc1ccccc1)N(Cc1ccccc1)Cc1ccccc1 (stereo partly shown) [8a,b]",
11.6 ± 1.3,,"O=C1CC(Cc2ccccc2)(C(=O)Nc2cccnc2)N1C[C@H](Cc1ccccc1)N(Cc1ccccc1)Cc1ccccc1 (stereo partly shown) [7a,b]",
10.7 ± 1.38,,"O=C1CC(Cc2ccccc2)(C(=O)NCc2cccnc2)N1C[C@H](Cc1ccccc1)N(Cc1ccccc1)Cc1ccccc1 (stereo partly shown) [9a,b]",
